{
  "source": "patent US5962516A",
  "about": "“Immunosuppressive compounds and methods” (priority 1999, dated 1999)",
  "key": {"[1]": {"experiment": "Cytotoxicity by MTT reduction reported with the MLR assay (Table II)", "type": "cell-based", "settings": "cytotoxic when toxicity greater than 25%", "method": "Potential cytotoxicity of the test samples was assessed by the measurement of their effect on the reduction of MTT (3-[4,5-Dimethylthiazole-2-yl]-2,5-diphenyltetrazolium bromide) by cultured cells. MTT, a yellow-colored compound, is reduced by mitochondrial enzymes to form the purple crystalline reduction product formazane, providing an index of cellular respiration on viable cells as well as a sensitive assay for cytotoxicity (Mossmann, 1983).\nThe cytotoxicity was assessed in cultured human PBMC and mouse thymocytes. A stock solution of MTT (Sigma) at 5 mg/ml in phosphate buffered saline, pH 7.4, was prepared and stored in the dark at 4° C. PBMCs or thymocytes were cultured with various concentrations of test samples in flatbottom 96-well tissue culture plates (Costar) under the same conditions as those described above, but the stimulants (X-35 or IL-1+PHA) were replaced by appropriate medium. Untreated cells with medium alone and without the test samples were used as controls. After incubation for 21 hours, 25 μl of MTT solution was added to each well. After an additional three hours of incubation, the experiment was terminated by addition of a solution of 10% sodium dodecyl sulfate in 0.01 N HCl. Following overnight incubation at 37° C. to solubilize the formazane crystals, optical density was determined at 570-650 nm in microplate reader. […]"}, "[2]": {"experiment": "Stability in water (D2O) by 1H NMR", "type": "physicochemical", "settings": "room temperature, Succinate Sodium Salt", "method": "Sodium triptolide succinate, designated YM-274, was dissolved in D2 O, and the aqueous solution was stored at room temperature.\nA solution of sodium triptolide succinate (YM-274) in D2 O was prepared at a concentration of 3 mg/ml and stored at room temperature. The solution was analyzed by ^1 H NMR at intervals of 1, 3, 5, 15, 45, 90, 180 minutes; 1, 7, 14 days; and 1, 2, 3, and 5 months."}, "[3]": {"system": "male fertility", "experiment": "Effect on fertility in male mice", "type": "in vivo, mouse (BDF1)", "method": "The compounds of the invention are also effective in reducing or inhibiting male fertility, wherein administration of a compound of the invention to a male mammal is effective to reduce the potency of the male's semen, thereby reducing or blocking fertilization. Triptolide succinate (YM-262) was tested for inhibition of fertility in male BDF1 mice, according to protocols described in Example 15. The compound was administered intraperitoneally (IP) in a saline solution, using a cycle of daily administration for 5 days followed by a two day cessation of treatment. Dose levels were 0.04 or 0.13 mg/kg/day. The cycle was repeated for 5 weeks before evaluation of physiological effects (testis weight) and reproductive performance.\nThe effect of the compound on fertility was tested with groups of five male mice treated according to the same schedule. Each male was housed with two females starting on day 32, after termination of YM-262 treatment.\nTriptolide succinate (YM-262) was tested for fertility control in male BDF1 mice, using a cycle of daily administration for 5 days followed by a two day cessation of treatment. The cycle was repeated for 5 weeks, with dosing on days 0-4, 7-11, 14-18, 21-25 and 28-32 before evaluation of physiological effects and reproductive performance.\nA dosing solution of YM-262 was prepared once a week from a stock solution in saline at 1.0 mg/ml and stored at 4° C. […]"}, "[4]": {"system": "male fertility", "experiment": "Effect on fertility in male mice", "type": "in vivo, mouse (BDF1)", "settings": "for delay of time from cohabitation to birth / increase in time from cohabitation to birth: vs control"}, "[5]": {"settings": "0.03 mg/kg/day (so in the source) i.p."}, "[6]": {"settings": "0.1 mg/kg/day (so in the source) i.p."}},
  "note": "“Also recorded” adds a separate entry of the source. Counter-ions that a name gives are not always drawn.",
  "data": [
    {"smiles": "CC(C)[C@]12O[C@H]1[C@@H]1O[C@]13[C@]1(O[C@H]1C[C@H]1C4=C(CC[C@@]13C)C(=O)OC4)[C@@H]2O", "note": "[Triptolide, triptolide, reference compound]", "values": [
      {"measurement": "CC50 at 24 h", "setting": "[1]", "result": 0.0133, "unit": "µg/mL"}
    ]},
    {"smiles": "CC(C)C12OC1C1OC13C1(C)CCC4=C(COC4=O)C1CC1OC13C2OC(=O)CCC(=O)O", "note": "(stereo not drawn) [YM-274, Triptolide Succinate Sodium Salt]", "values": [
      {"measurement": "stability in aqueous solution, three months", "setting": "[2]; 3 months", "result": "no appreciable change in the NMR spectrum; also recorded: unchanged after three months in solution"},
      {"measurement": "stability in aqueous solution, five months", "setting": "[2]; 5 months", "result": "Some decomposition was apparent; also recorded: some decomposition was observed"}
    ]},
    {"smiles": "CC(C)C12OC1C1OC13C1(C)CCC4=C(COC4=O)C1CC1OC13C2OC(=O)CCC(=O)O", "note": "(stereo not drawn) [YM-262, Triptolide Succinate]", "values": [
      {"measurement": "delay of recovery of fertility after termination of therapy", "setting": "[3]; 0.13 mg/kg/day i.p. over 32 days", "result": 21, "unit": "days"},
      {"measurement": "reversibility of antifertility effect", "setting": "[3]; after cessation of administration", "result": "the antifertility effect was reversible; also recorded: the control of fertility was reversible"},
      {"measurement": "time from beginning of cohabitation to birth of litters", "setting": "[4]; [5]", "result": 28, "unit": "days"},
      {"measurement": "delay of time from cohabitation to birth", "setting": "[4]; [5]", "result": 17, "unit": "%"},
      {"measurement": "period of unproductive mating", "setting": "[4]; 0.04 mg/kg/day i.p.", "result": "approximately four-day period of unproductive mating"},
      {"measurement": "time from beginning of cohabitation to birth of litters", "setting": "[4]; 0.04 mg/kg/day i.p.", "result": 28, "unit": "days"},
      {"measurement": "delay of time from cohabitation to birth", "setting": "[4]; 0.04 mg/kg/day i.p.", "result": 17, "unit": "%"},
      {"measurement": "time from cohabitation to birth", "setting": "[4]; [6]", "result": 45, "unit": "days"},
      {"measurement": "delay of recovery of fertility after termination of therapy", "setting": "[4]; 0.1 mg/kg/day (so in the source) i.p. over 32 days", "result": 21, "unit": "days"},
      {"measurement": "increase in time from cohabitation to birth", "setting": "[4]; [6]", "result": 88, "unit": "%"},
      {"measurement": "time from cohabitation to birth", "setting": "[4]; 0.13 mg/kg/day i.p.", "result": 45, "unit": "days"},
      {"measurement": "increase in time from cohabitation to birth", "setting": "[4]; 0.13 mg/kg/day i.p.", "result": 88, "unit": "%"}
    ]}
  ]
}
